Assays:
HBV [1] = assay: Therapeutic effect on HepG2-hNTCP 2B1 infected by HBV (drug from day 6 after infection); type: cell-based, hepatitis B virus; conditions: drug treatment from 6 days after HBV infection to day 12, Palovarotene at high concentrations (p<0.05), ETV 1 μM, vs blank group
Protocol: This experiment was carried out in a 24-well culture plate. […] About 1.5×10^5 HepG2-hNTCP 2B1 cells were plated in each well, and 500 μL of medium B was added to each well. After the cells adhered, medium A was used for replacement to perform the induction with Doxycycline during the whole experiment.
4 Days after the induction with Doxycycline, HBV infection was performed, and the amount of HBV in each well was 100 MOI. Before infection, HBV was diluted in medium C to obtain HBV solution, and the infection volume was 250 μL per well. During infection, the cell supernatant was first removed by suction, the HBV solution was added to the cells, and the cells were incubated for 24 hours, then the supernatant was collected as the sample of Day 0. Then the cells were washed three times with PBS, and fresh medium C was used for replacement. After that, the supernatant was collected every two days for detection, fresh medium C was used for replacement. On the 6th day, fresh drug-containing medium A was used for replacement to start drug treatment, then the supernatant was collected every two days for detection, and fresh drug-containing medium A was used for replacement, until the 12th day, all the supernatant and cells were collected for relevant detection. The detection items included HBsAg, HBeAg, HBV DNA, HBV cccDNA, and for the detection method, please refer to Example 1.

HBV [2] = assay: Inhibitory effect on HBV infection in human primary hepatocytes (drug before infection); type: cell-based, hepatitis B virus; conditions: 1, 5, 25 μM, treatment before infection, to day 8, p<0.05
Text: Primary hepatocytes were isolated from humanized mice transplanted with primary human hepatocytes through perfusion technique (refer to: Foquet, Lander, et al. “Successful engraftment of human hepatocytes in uPA-SCID and FRG® KO mice.” Hepatocyte Transplantation. Humana Press, New York, NY, 2017. 117-130, Wan-Chun Li, et al. “Isolation and Culture of Adult Mouse Hepatocytes.” Mouse Cell Culture. Humana Press, 2010. 185-196.), directly cultured in 24-well plates (Collagen I pre-coated 24-well plates, purchased from Thermo Scientific) after counting (about 5×10^5 primary hepatocytes per well), and medium H was added to maintain hepatocyte morphology (refer to: Xiang, Chengang, et al. “Long-term functional maintenance of primary human hepatocytes in vitro.” Science 364.6438 (2019): 399-402.). After culturing for 24 hours, drug-containing medium H was used to replace the drug-free medium H to perform drug treatment for 24 hours, and then infection was carried out with HBV, and the amount of HBV for infection in each well was 2000 MOI. Before infection, HBV was first diluted in medium I to obtain HBV solution, and the infection volume was 250 μL/well. During infection, the cell supernatant was first removed by suction, the HBV solution was added to the cells, the cells were incubated for 24 hours, then the supernatant was collected as the sample of Day 0. Then the cells were washed 3 times with PBS that was warmed in bath at 37° C., and fresh drug-containing medium H (500 μL per well) was used for replacement, then the supernatant was collected every two days for detection, fresh drug-containing medium H was used for replacement, until the 8th day, all the supernatants and cells were collected for relevant detection. The detection items included HBsAg, HBeAg, HBV DNA, HBV cccDNA, and for the detection method, please refer to Example 1.

HBV [3] = assay: Inhibitory effect on HBV infection in infection model HepaRG M14A (drug before infection); type: cell-based, hepatitis B virus; conditions: 1, 5, 25 μM, treatment before infection
Protocol: HepaRG was a hepatic progenitor cell line with differentiation potential which was isolated from the tumor tissue of a hepatitis C patient. After two weeks of cell plating, the cellular differentiation was induced with 2% DMSO (2 mL of DMSO was added to per 100 mL of cell culture medium) for two weeks. Finally, about 50% of the cells differentiated into hepatocyte-like cells, and the other 50% of the cells differentiated into cholangiocyte-like cells. Among them, hepatocyte-like cells supported HBV infection with an infection efficiency of about 20%. Through genetic modification of HepaRG, the HNF4A and FoxM1 genes were integrated into HepaRG cells, and a HepaRG M14A cell line that could complete differentiation and support HBV infection independent of DMSO was obtained by screening. (For the construction method of this cell model, please refer to: Zhao Jinghua. Development, Optimization and Preliminary Application of in vitro models supporting HBV Infection [D]. Xiamen University, 2016.)
This experiment was carried out in a 24-well cell culture plate. […] About 1.5×10^5 HepaRG M14A cells were plated in each well, and 500 μL of medium D was added to each well. After cell plating, medium D was replaced every 2 days. After 13 days of cell plating, medium D was replaced with drug-containing medium D for drug treatment. After 24 hours of drug treatment, the cells were infected with HBV, and the amount of HBV for infection in each well was 1000 MOI. Before infection, an HBV solution was obtained by diluting HBV in medium E, and the infection volume was 250 μL per well. During infection, the cell supernatant was first removed by suction, the HBV solution was added to the cells, then the cells were incubated for 24 hours, and then the supernatant was collected as the sample of Day 0. Then, the cells were washed three times with PBS warmed in bath at 37° C., and fresh drug-containing medium D (500 μL per well) was used for replacement, then the supernatant was collected every 2 days for detection, and fresh drug-containing medium D was used for replacement, until the 8th day, all the supernatant and cells were collected for related detection. The detection items include HBsAg, HBeAg, HBV DNA, HBV cccDNA, and for the detection method, please refer to Example 1.

[4] = tested on: human primary hepatocytes; assay: Safety assessment, CCK-8 cell activity, human primary hepatocytes; type: cell-based; conditions: 1 μM, 5 μM and 25 μM, 6 days treatment
Protocol: This experiment was carried out in a 96-well culture plate, with 8×10^4 corresponding cells plated in each well, and the corresponding medium volume was 100 μL, in which each drug to be tested in the HepG2-hNTCP 2B1, HepaRG M14A and primary hepatocyte experimental groups had three final concentrations of 1 μM, 5 μM and 25 μM, each drug to be tested in the HepAD38 cell experimental group had two final concentrations of 1 μM and 5 μM (the drug was diluted with the corresponding medium to the final concentrations, specifically please refer to Example 1, Example 2, Example 4 and Example 5), and to the blank group the same volume of culture medium without drug was added. After the cells had grown to a suitable density, drug was added to perform treatment for 6 days, during which, the medium was changed every two days with fresh drug-containing medium. After the drug treatment, 110 μL of medium containing Beyotime CCK-8 cell activity detection reagent (purchased from Beyotime, Art. No. C0038) (the volume ratio of medium to CCK-8 reagent was 100:10) was used for replacement, the cells were incubated at 37° C. for 30 min, and then all the supernatant was collected for detection of absorbance. The absorbance value was read on PHOMO microplate reader purchased from Zhengzhou Autobio.

## CC1(C)CCC(C)(C)c2cc(Cn3cccn3)c(/C=C/c3ccc(C(=O)O)cc3)cc21 [Palovarotene]
HBV [1]
  HBeAg: significant inhibitory effect
  level of HBV DNA: significantly reduce
  level of HBV cccDNA: significantly reduce
HBV [2]
  level of HBeAg in the cell supernatant: significantly inhibit
  level of HBsAg in the cell supernatant: significantly inhibit
  level of intracellular HBV DNA: significantly inhibit
  level of intracellular cccDNA: significantly inhibit
HBV [3]; to day 8, p<0.0001
  level of intracellular HBV DNA: significantly reduce
  level of intracellular cccDNA: significantly reduce
HBV [3]; to day 8, p<0.05
  level of HBeAg in cell supernatant: significantly reduce
  level of HBsAg in cell supernatant: significantly reduce
[4]
  CCK-8 absorbance value (cell activity) vs blank group: not significantly different

Reference: patent US12569468B2, “Use of palovarotene in treatment against HBV virus” (YANG SHENG TANG COMPANY, LTD., priority 2020, dated 2026)
